Measured values from patent publication US20060116354A1, “Antineoplastic ether lipid compounds with modifications at the sn-3 carbon” (priority 2003, published 2006).

Tested on: platelets
Protocol: Briefly, whole citrated blood is diluted 1:2 with sterile saline and placed in a warm chamber with a mini stir bar. An electronic probe, measuring electrical resistance, is inserted in the sample. The aggregometer is calibrated and the baseline is observed to detect any spontaneous aggregation. The test sample is added and allowed to run for at least 6 minutes. If the sample is an agonist the platelets will start to aggregate and stick to the electronic probe causing resistance across the electrodes to increase. This resistance, in ohms, is measured 6 minutes post addition of sample. The test samples are run at 25, 100, 200, 400 and 800 uM and compared to 100 uM L-ET-18-OCH3.
Collection of Blood Sample for in vitro Platelet Aggregation Testing: Venous blood is collected in 4.5 mL. Vacutainer tubes containing 0.129 M sodium citrate using a 21G needle or larger. Blood is immediately mixed by gentle inversion 15-20 times and kept at room temperature. Dilution ratio is 1 to 9 (3.8% citrate solution:blood). One (2.0 mL) Vacutainer tube containing EDTA is also collected for platelet counts. Complete blood counts (CBC) are measured on the CDC Technologies Hemavet 1500 to ensure that the test subject's platelets are within normal range. Any vials of hemolytic blood or blood containing any clots should be discarded. Platelet aggregation testing must be completed within 3 hours of blood collection. After this time the ability of platelets to aggregate decreases.
Cloudy solutions were warmed to ˜50° C. to dissolve and particles. Dilutions were prepared in PBS or saline at 40× concentration. (25 uL test sample are added to 1000 uL diluted blood (1:40)).

Platelet aggregation response (in words) | Relative Platelet Aggregation (Ohms) 25 μM [Ohms] | Relative Platelet Aggregation (Ohms) 100 μM [Ohms] | Relative Platelet Aggregation (Ohms) 200 μM [Ohms] | Compound
elicits a platelet aggregation response | 13 | 14 | 12 | CCCCCCCCCCCCCCCCCCOCC(COP(=O)([O-])OCC[N+](C)(C)C)OC [L-ET18OCH3, 1-O-octadecyl-2-O-methyl-glycerophosphocholine]
– | 0 | 0 | 0 | CCCCCCCCCCCCCCCCCCOCC(COP(=O)([O-])OCC[N+](C)(C)C)OC [D-ET18OCH3, 1-O-octadecyl-2-O-methyl-glycerophosphocholine]
